Experiment [1] deals with MDA-MB-435 Human Breast Cancer Cells Transplanted into Nude Mice. Nature of the experiment: Preclinical chemotherapeutic xenograft study. It is filed as in vivo. The settings on record: for Percent mean tumor weight gain (mg) following treatments / Mean tumor Weights (mg) Following Treatments: positive control 20 mg/kg i.p. daily for 5 days. On the procedure:
(§1) For the preclinical chemotherapeutic studies, in the absence of an maximum tolerated dose, the mice are supplemented with 30 and 20 mgs/0.1 ml by gavage daily for 21 days. Compound 1 is dissolved in 100% ethanol at 2 grams of compound 1/5 mls of ethanol, and diluted in peanut oil (nonsupplemented vitamin E) to yield 30 and 20 mgs of compound 1 per 0.1 ml. Vehicle control consisted of a mixture of ethanol and peanut oil equivalents. The preclinical chemotherapeutic studies are conducted with compound 1, utilizing human MDA-MB-435 human breast cancer cells, human DU-145 prostate cancer cells, and human HT-20 colon tumor cells transplanted into Balb/c immune compromised nude mice.
(§2) A total of 40 immune compromised nude mice are utilized for testing each test compound (two treatment groups at 20 and 30 mg/day) in each tumor cell type. […] Tumor cells are transplanted subcutaneously into the left flank and permitted to grow to approximately 70 mg in size, test compound treatments by daily gavage are initiated, and continue for a total of 21 days. Mice are monitored daily for tumor size by caliper measurements. Mice are treated for 21 days; however, the mice are sacrificed when the tumors of the vehicle control reached 500 mg in weight. At the completion of the protocol, tumors are excised and tumor size established by weight. At the time of sacrifice, serum, tumor, and heart muscle are taken from animals in the two compound 1 test groups in order to establish levels of compound 1 via HPLC analyses (data not included). The chemotherapeutic effectiveness of compound 1 administered daily at 30 and 20 mgs/day is determined by comparing the tumor size of the two treatment groups with the vehicle control group for each of the three tumor types, and by comparing the size of the tumor in the two treatment groups with the tumor group from the positive control. Treatment is for 21 days, experiments are continued until mean weight of tumor for vehicle control reaches 500 mgs.

Another experiment deals with ME-180. Nature of the experiment: Bioassay for apoptosis (apoptotic EC50). It is filed as cell-based, human. The settings on record: for apoptotic EC50: ME-180, unit not given, in µg/mL. On the procedure: (§3) Cells were cultured at 1.5×10^5 cells/well in 12 well plates. Cells were allowed to adhere overnight, then incubated with novel test compounds at 0.01, 0.1, 1, 5, 10 & 20 μg/mL for 1, 2 and 3 days. After treatment, cells (floating+trypsin released adherent cells) were pelleted, washed and stained with 2 μg/ml DAPI (4′,6-diamidine-2′-phenylindole dihydrochloride) in 100% methanol for 15 minutes at 37° C. and/or 3′-OH ends resulting from DNA fragmentation were detected with the TUNEL (terminal deoxynucleotidyl transferase-mediated dUTP-X 3′ nick end-labeling) technique, and then viewed using a Zeiss ICM 405 microscope. Cells whose nucleus contained clearly condensed or fragmented chromatin or stained for fragmented DNA in the TUNEL assay were scored as apoptotic. Data are presented as percent cells undergoing apoptosis.

In experiment [2] the test system is human cancer cells from a wide variety of cell lineages. Description: Apoptosis induction in a battery of tumor cells. It is filed as cell-based. The settings on record: breast, prostate, leukemia/lymphoid, cervical, ovarian, endometrial, colon, lung cell lines. The method, then:
as §3

The next experiment relates to MDA-MB-435. Nature of the experiment: Bioassay for apoptosis (apoptotic EC50). It is filed as cell-based, human. The settings on record: for apoptotic EC50: MDA-MB-435, unit not given; for EC50: Homo sapiens, MDA-MB-435, MDA-MB-435, unit inferred, read-out: apoptotic EC50. The method, then:
as §3

The subject of a further experiment is C-170. Description: Bioassay for apoptosis (apoptotic EC50). It is filed as cell-based, human. The method, then:
as §3

For the next experiment, the system named is HL-60. Description: Bioassay for apoptosis (apoptotic EC50). It is filed as cell-based, human. The settings on record: HL-60; unit not given; in µg/mL. The method, then:
as §3

In a further experiment the test system is LnCaP. Description: Bioassay for apoptosis (apoptotic EC50). It is filed as cell-based, human. On the procedure:
as §3

The next experiment deals with MCF-7. Description: Bioassay for apoptosis (apoptotic EC50). It is filed as cell-based, human. The settings on record: for EC50: Homo sapiens, MCF7, MCF-7, unit inferred. On the procedure: as §3
The subject of the next experiment is MDA-MB-231. Nature of the experiment: Bioassay for apoptosis (apoptotic EC50). The settings on record: for EC50: Homo sapiens, MDA-MB-231, MDA-MB-231, unit inferred. It is filed as cell-based, human. On the procedure:
as §3

Another experiment has as its system PC-3. Nature of the experiment: Bioassay for apoptosis (apoptotic EC50). It is filed as cell-based, human. The settings on record: PC-3; unit not given; in µg/mL. The method, then: as §3
A further experiment has as its system RL-95-2. Nature of the experiment: Bioassay for apoptosis (apoptotic EC50). It is filed as cell-based, human. The settings on record: Homo sapiens, RL95-2, RL-95-2; unit inferred. On the procedure:
as §3

The test system of experiment [3] is HT-29 Human Colon Cancer Cells Transplanted into Nude Mice. Description: Preclinical chemotherapeutic xenograft study. It is filed as in vivo. The settings on record: for Mean tumor Weights (mg) Following Treatments / Percent mean tumor weight gain (mg) following treatments: positive control 30 mg/kg daily for 5 days. The method, then: as §1, §2
Experiment [4] relates to DU-145 Human Prostate Cancer Cells Transplanted into Nude Mice. Description: Preclinical chemotherapeutic xenograft study. It is filed as in vivo. The settings on record: for Mean tumor Weights (mg) Following Treatments / Percent mean tumor weight gain (mg) following treatments: positive control 1 mg/kg i.v. daily for 5 days. The method, then: as §1, §2

Converted amounts (≈) assume the structure as drawn.

As a reminder, the EC50 is the midpoint of the concentration-response curve.

For the compound `CC(=O)O[C@H]1C(=O)[C@@]2(C)[C@H]([C@H](OC(=O)c3ccccc3)[C@]3(O)C[C@H](OC(=O)[C@H](O)[C@@H](NC(=O)c4ccccc4)c4ccccc4)C(C)=C1C3(C)C)[C@]1(OC(C)=O)CO[C@@H]1C[C@@H]2O` [Taxol, reference compound], the “Percent mean tumor weight gain (mg) following treatments” value (shortened to “Percent mean tumor weight gain”) is reported as 100% in experiment [1] (day 1); 101.1% in experiment [1] (day 4); −46.0% in experiment [1] (day 7); −83.7% in [1] (day 10); −91.8% in [1] (day 14); −99.5% in [1] (day 17). The “Percent mean tumor weight gain” value in experiment [1] (day 21) was −90.3%. Also, the “Mean tumor Weights (mg) Following Treatments” value (shortened to “Mean tumor Weights”) in experiment [1] (day 7) is reported as 38.2 mg; in experiment [1] (day 10), 11.7 mg; in experiment [1] (day 14) it was 5.7 mg; in experiment [1] (day 17), 3.6 mg; in [1] (day 21) it was 6.8 mg. Also, in experiment [1] (positive control, 20 mg/kg intraperitoneally daily for 5 days), the “reduction of mean tumor growth vs vehicle control” value (from here on “reduction of mean tumor growth”) worked out at 90.3%.

For “2-(2,5,7,8-tetramethyl-(2R-(4R,8,12-trimethyltridecyl)chroman-6-yloxy)triethylammonium sulfate [Compound 21]”, the “apoptotic EC50” value with ME-180 is reported as 1-5. Further, in experiment [2], the “growth inhibitory (apoptotic inducing) properties specific for human cancer cells” value (“growth inhibitory” for short) is listed as “effective”.

For `Cc1c(C)c2c(c(C)c1N=Nc1ccc([N+](=O)[O-])cc1[N+](=O)[O-])CCC(C)(CCCC(C)CCCC(C)CCCC(C)C)N2` (stereo not shown) [Compound 43], the “apoptotic EC50” value with MDA-MB-435 is “PPT”.

With `Cc1c(C)c2c(c(C)c1OCCC(=O)O)CC[C@@](C)(CCC[C@H](C)CCC[C@H](C)CCCC(C)C)O2` [Compound 2, 2,5,7,8-tetramethyl-(2R-(4R,8R,12-trimethyltridecyl)chroman-6-yloxy) propionic acid], the “apoptotic EC50” value in the experiment on C-170 (C-170, unit not given, in µg/mL) is reported as 10-20; with HL-60, 10-20; with LnCaP (unit not given, in µg/mL), 5-10; with MCF-7 (MCF-7, unit not given, in µg/mL) it was 20-30; with MDA-MB-231 (MDA-MB-231, unit not given, in µg/mL), 10-20; in the experiment with MDA-MB-435 (in µg/mL), 10-20. Also, the “apoptotic EC50” value with ME-180 and in the experiment with PC-3 was 5-10 throughout. Besides, in experiment [2], the “growth inhibitory” value was “effective”.

Consider `Cc1c(C)c(OCC(=O)O)c(C)c2c1NC(C)(CCCC(C)CCCC(C)CCCC(C)C)CC2` (stereo not drawn) [Compound 39, 1-Aza-α-tocopherol-6-yloxyl-acetic acid], for which the “apoptotic EC50” value in the experiment with MDA-MB-435 (in µg/mL) is 10-20. In experiment [2], the “growth inhibitory” value was “effective”.

As for `C/C(=C\CSc1cc(C)c(OCC(=O)O)c(C)c1C)CCCC(C)CCCC(C)CCCC(C)C` (stereo not drawn) [Compound 27, E.Z,RS,RS,RS-(phytyltrimethylbenzenethiol-6-yloxy)acetic acid], the concentration giving a half-maximal response (EC50) with LnCaP (Homo sapiens, unit inferred) was in the range of 10 to 20 µg/mL (≈ 19.8 to 39.6 µM); with MCF-7 it was 10 to 20 µg/mL (≈ 19.8 to 39.6 µM). Also, the “growth inhibitory” value in experiment [2] is “effective”.

Regarding `Cc1c(C)c2c(c(C)c1OCC(=O)O)CC[C@](C)(C(=O)O)O2` [Compound 16], the EC50 in the experiment with MCF-7, with MDA-MB-231 and with MDA-MB-435 was above 20 µg/mL throughout.

In the case of `Cc1c(C)c2c(c(C)c1OCC(=O)O)CCC(C)(CCCC(C)CCCC(C)CCCC(C)C)O2` (racemic) [Compound 15, 2,5,7,8-tetramethyl-(2RS-(4RS,8RS,12-trimethyltridcyl)chroman-6-yloxy)acetic acid], the concentration giving a half-maximal response (EC50) was above 20 µg/mL in the experiment with C-170 (Homo sapiens, C170, C-170, unit inferred); 20 to 30 µg/mL (≈ 40.9 to 61.4 µM) in the experiment with MCF-7; 20 to 30 µg/mL (≈ 40.9 to 61.4 µM) in the experiment with MDA-MB-231; 20 to 30 µg/mL (≈ 40.9 to 61.4 µM) in the experiment with MDA-MB-435; above 20 µg/mL with ME-180 (Homo sapiens, ME-180, ME-180, unit inferred); above 20 µg/mL in the experiment with RL-95-2. For the same compound, the “growth inhibitory” value in [2] was “effective”.

As to `O=c1[nH]cc(F)c(=O)[nH]1` [Compound 5-FU, 5 Fluorouracil, reference compound], the “Mean tumor Weights” value in experiment [3] (day 1) is recorded as 59.3 mg; in [3] (day 5) it was 87.5 mg; in experiment [3] (day 8), 105.8 mg; in [3] (day 12) it was 145.8 mg; in [3] (day 15) it was 141.6 mg; in experiment [3] (day 19), 212.3 mg. Moreover, in experiment [3] (day 22), the “Mean tumor Weights” value is recorded as 255.5 mg. In addition, the “Percent mean tumor weight gain” value in experiment [3] (day 1) stood at 100%; in experiment [3] (day 5), 147.6%; in [3] (day 8), 178.4%; in experiment [3] (day 12), 245.9%; in experiment [3] (day 15) it was 247.2%; in experiment [3] (day 19), 358.0%. Further, the “Percent mean tumor weight gain” value in [3] (day 22) worked out at 430.0%. For the same compound, in experiment [3] (positive control, 30 mg/kg daily for 5 days), the “reduction of mean tumor growth” value turned out to be 31.4%.

`O=C1c2c(O)ccc(O)c2C(=O)c2c(NCCNCCO)ccc(NCCNCCO)c21` [Mitoxantrone, reference compound]: the “Mean tumor Weights” value is reported as 66.8 mg in experiment [4] (day 1); 107.2 mg in experiment [4] (day 5); 141.1 mg in [4] (day 8); 185.4 mg in experiment [4] (day 12); 205.2 mg in [4] (day 15); 325.3 mg in experiment [4] (day 19). For the same compound, the “Mean tumor Weights” value in [4] (day 22) was determined as 389.4 mg. The “Percent mean tumor weight gain” value in [4] (day 1) stood at 100%; in [4] (day 5) it was 160.5%; in experiment [4] (day 8), 211.2%; in [4] (day 12) it was 277.5%; in experiment [4] (day 15), 307.2%; in [4] (day 19), 487.0%. For the same compound, the “Percent mean tumor weight gain” value in experiment [4] (day 22) worked out at 582.9%. Besides, the “reduction of mean tumor growth” value in experiment [4] (positive control, 1 mg/kg daily intravenously for 5 days) was determined as 27.9%.

The values above are taken from US8148424B2, “Tocopherols, tocotrienols, other chroman and side chain derivatives and uses thereof” (Research Development Foundation, priority 1998, dated 2012).
